Source: ChEMBL document CHEMBL1201862, “PubChem BioAssay data set” (2004)
Calls of active or inactive are those of the source.

Experiments:
[1] = miR-122 activators in hepatoma reporter cells, dose response, cell-based, Huh7 psiCHECK-miR122, Renilla luciferase, cherry-picked (AID 651956); assay type: functional;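 further: huh7 hepatoma cells stably carrying a psiCHECK-2 miR-122 sensor plasmid; renilla luciferase signal reporting endogenous miR-122 activity after 48 h compound exposure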
[2] = target: G-protein coupled receptor 55 (Homo sapiens, UniProt Q9Y2T6); test: GPR55 antagonists blocking LPI-driven arrestin recruitment, primary screen, imaging, U2OS, beta-arrestin-GFP, LPI agonist (AID 2013); assay type: functional;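 further: antagonist potency measured as reduced agonist-driven arrestin aggregation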
[3] = target: T1, Heat shock factor protein 1 (Mus musculus, UniProt P38532); test: inhibition of MG132-induced HSE-luciferase signal, confirmation, cell-based, NIH3T3, luminescence, dose retest (AID 2382); assay type: functional;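 further: NIH3T3 fibroblasts with HSF1-driven luciferase reporter stressed by proteasome inhibitor MG132; luminescence from HSF1-driven luciferase expression after 8 hours of MG132 stress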
T1 sequence (P38532 whole entry): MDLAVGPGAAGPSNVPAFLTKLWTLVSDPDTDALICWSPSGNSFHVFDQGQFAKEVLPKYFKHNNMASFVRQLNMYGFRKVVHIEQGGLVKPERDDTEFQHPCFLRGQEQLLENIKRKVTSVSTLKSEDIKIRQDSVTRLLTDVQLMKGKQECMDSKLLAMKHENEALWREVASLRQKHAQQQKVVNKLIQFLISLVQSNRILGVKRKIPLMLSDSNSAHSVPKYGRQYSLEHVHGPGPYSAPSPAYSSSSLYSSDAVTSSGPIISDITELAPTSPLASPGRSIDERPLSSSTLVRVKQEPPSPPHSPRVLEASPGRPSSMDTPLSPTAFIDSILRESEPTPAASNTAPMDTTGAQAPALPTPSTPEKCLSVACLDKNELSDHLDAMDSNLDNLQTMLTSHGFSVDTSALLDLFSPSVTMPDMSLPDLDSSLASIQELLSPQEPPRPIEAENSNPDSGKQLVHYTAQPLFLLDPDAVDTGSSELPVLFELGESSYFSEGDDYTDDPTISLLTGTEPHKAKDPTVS

[4] = target: T2, Ubiquitin-conjugating enzyme E2 N (Homo sapiens, UniProt P61088); assay type: functional;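 further: Dose-response confirmation in a TR-FRET assay detecting UBC13-driven polyubiquitin chain formation, inhibition measured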
T2 sequence (P61088 whole entry): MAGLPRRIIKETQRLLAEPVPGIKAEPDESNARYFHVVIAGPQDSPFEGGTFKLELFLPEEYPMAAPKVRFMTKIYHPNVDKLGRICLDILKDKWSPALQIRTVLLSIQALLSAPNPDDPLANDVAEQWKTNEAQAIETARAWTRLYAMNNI

[5] = target: DNA repair protein RAD52 homolog (Homo sapiens, UniProt P43351); assay type: functional, biochemical
[6] = non-specific cell cytotoxicity, dose response, cytotoxicity control for PAX8 inhibitor project, plate reader, dry powder samples (AID 743021); assay type: functional, cell-based
[7] = cytotoxicity toward DRD oncogenic fibroblasts, dose response, cell-based, non-viral oncogenic, luminescence (AID 1934); assay type: functional; conditions: Homo sapiens
[8] = target: Paired box protein Pax-8 (Homo sapiens, UniProt Q06710); test: inhibitors of PAX8-driven TPO luciferase reporter, dose response, RMG-I cells, cherry-pick (AID 687027); assay type: functional, cell-based;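 further: luciferase reporter driven by Pax8 target thyroperoxidase promoter measured by SteadyGlo luminescence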
[9] = system: BJ; test: cells; assay type: functional, cell-based; conditions: Homo sapiens
[10] = system: BJ; test: cytotoxicity toward Ras-transformed BJeLR fibroblasts, dose response, cell-based, alamar blue fluorescence, cherrypicked samples (AID 2631); assay type: functional; conditions: Homo sapiens;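 further: confirmatory dose-response assay in RAS-dependent BJ fibroblasts engineered with TERT, LT and ST, with cytotoxicity read by fluorescence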
[11] = inhibitors of SNCA 5'UTR-driven reporter translation, confirmation, H4 neuroglioma cells, luminescence (AID 1988); assay type: functional, cell-based
[12] = system: BJ; test: cytotoxicity toward BJ-TERT-LT-ST fibroblasts, dose response, cell-based, RAS-independent, luminescence (AID 1935); assay type: functional; conditions: Homo sapiens;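 further: BJ fibroblasts immortalized with TERT plus LT and ST oncogenes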
[13] = MDA-MB-231 cell growth inhibition, dose response, cytotoxicity control for RAD54 inhibitor project, CellTiter-Glo luminescence, cherry-pick (AID 651692); assay type: functional, cell-based
[14] = system: BJ; test: cytotoxicity toward BJ-TERT fibroblasts, dose response, cell-based, RAS-independent, luminescence (AID 1933); assay type: functional; conditions: Homo sapiens
[15] = target: T3, DNA repair and recombination protein RAD54-like (Homo sapiens, UniProt Q92698); test: inhibitors of human RAD54 branch migration, confirmation, biochemical, fluorescence, cherry-picked samples, dose series (AID 651657); assay type: functional
T3 sequence (Q92698 whole entry): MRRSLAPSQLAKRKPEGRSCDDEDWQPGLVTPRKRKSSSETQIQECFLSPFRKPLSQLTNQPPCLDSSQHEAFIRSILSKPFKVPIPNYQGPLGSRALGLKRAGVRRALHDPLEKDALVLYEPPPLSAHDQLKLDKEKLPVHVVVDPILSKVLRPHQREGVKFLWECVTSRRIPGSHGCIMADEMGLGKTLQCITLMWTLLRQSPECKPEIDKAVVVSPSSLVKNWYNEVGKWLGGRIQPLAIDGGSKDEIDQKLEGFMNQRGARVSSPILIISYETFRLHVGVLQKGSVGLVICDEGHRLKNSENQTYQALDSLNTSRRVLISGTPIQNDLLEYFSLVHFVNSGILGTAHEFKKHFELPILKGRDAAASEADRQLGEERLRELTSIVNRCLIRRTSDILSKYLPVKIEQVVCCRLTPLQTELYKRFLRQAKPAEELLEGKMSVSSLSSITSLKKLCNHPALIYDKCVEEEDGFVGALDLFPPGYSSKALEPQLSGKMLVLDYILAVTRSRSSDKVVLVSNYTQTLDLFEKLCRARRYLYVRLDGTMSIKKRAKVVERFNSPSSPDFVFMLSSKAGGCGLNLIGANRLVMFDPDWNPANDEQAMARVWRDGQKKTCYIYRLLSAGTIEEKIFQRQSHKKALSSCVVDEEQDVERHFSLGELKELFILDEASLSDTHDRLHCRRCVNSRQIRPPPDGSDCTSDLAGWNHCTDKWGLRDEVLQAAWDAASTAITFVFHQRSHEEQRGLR

[16] = inhibitors of firefly luciferase expression or activity, dose response, H4 neuroglioma cells, luminescence (AID 1990); assay type: functional, cell-based
[17] = T. cruzi intracellular amastigote growth inhibition, dose response, imaging, CA-I/72 strain, bovine embryo skeletal muscle, dry powder (AID 651885); assay type: functional, cell-based
[18] = L. donovani amastigote growth inhibition, dose response, axenic amastigotes, plate reader, cherry pick (AID 651891); assay type: functional, cell-based; conditions: Leishmania donovani
[19] = intracellular Trypanosoma cruzi inhibitors in host cells – cell-based, plate reader, cherry-pick samples, set 3, dose response (AID 651818); assay type: functional;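 further: compounds incubated with infected cells for about four days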
[20] = Inhibition of T. cruzi Tulahuen strain amastigotes in L-6 muscle cells Measured in Cell-Based and Microorganism Combination System Using Plate Reader - 2138-03_Inhibitor_Dose_CherryPick_Activity.; assay type: functional; conditions: Rattus norvegicus, L6
[21] = T. b. rhodesiense proliferation inhibition, dose response, STIB900 strain, plate reader, cherry pick (AID 651893); assay type: functional, cell-based; conditions: Trypanosoma brucei
[22] = Inhibition of Plasmodium falciparum NF54 Measured in Cell-Based System Using Plate Reader - 2138-11_Inhibitor_Dose_CherryPick_Activity.; assay type: functional
[23] = cytotoxicity in L-6 rat myocytes, dose response, cytotoxicity control, cell-based, plate reader, cherry-pick (AID 651896); assay type: functional

DNA repair protein RAD52 homolog, sequence (P43351 whole entry): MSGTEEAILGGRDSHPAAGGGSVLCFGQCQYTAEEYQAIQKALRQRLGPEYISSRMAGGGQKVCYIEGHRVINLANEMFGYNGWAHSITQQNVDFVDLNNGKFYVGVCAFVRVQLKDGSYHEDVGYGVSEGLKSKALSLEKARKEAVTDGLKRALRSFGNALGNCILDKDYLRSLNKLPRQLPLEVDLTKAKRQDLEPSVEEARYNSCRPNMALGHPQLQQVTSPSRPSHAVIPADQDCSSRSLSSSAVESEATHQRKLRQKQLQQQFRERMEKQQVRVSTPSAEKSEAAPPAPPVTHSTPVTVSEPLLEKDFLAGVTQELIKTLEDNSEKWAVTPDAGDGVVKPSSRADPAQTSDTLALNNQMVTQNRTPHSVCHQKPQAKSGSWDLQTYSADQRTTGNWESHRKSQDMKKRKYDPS
G-protein coupled receptor 55, sequence (Q9Y2T6 whole entry): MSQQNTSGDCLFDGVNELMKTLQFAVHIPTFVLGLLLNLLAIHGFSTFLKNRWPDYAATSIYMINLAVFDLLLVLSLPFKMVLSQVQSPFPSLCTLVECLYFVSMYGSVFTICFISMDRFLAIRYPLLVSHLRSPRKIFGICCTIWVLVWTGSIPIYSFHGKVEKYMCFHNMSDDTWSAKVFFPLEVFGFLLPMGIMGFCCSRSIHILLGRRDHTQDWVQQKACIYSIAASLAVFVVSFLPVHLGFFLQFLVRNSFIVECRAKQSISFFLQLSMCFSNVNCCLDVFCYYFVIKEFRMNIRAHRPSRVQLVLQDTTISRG
Paired box protein Pax-8, sequence (Q06710 whole entry): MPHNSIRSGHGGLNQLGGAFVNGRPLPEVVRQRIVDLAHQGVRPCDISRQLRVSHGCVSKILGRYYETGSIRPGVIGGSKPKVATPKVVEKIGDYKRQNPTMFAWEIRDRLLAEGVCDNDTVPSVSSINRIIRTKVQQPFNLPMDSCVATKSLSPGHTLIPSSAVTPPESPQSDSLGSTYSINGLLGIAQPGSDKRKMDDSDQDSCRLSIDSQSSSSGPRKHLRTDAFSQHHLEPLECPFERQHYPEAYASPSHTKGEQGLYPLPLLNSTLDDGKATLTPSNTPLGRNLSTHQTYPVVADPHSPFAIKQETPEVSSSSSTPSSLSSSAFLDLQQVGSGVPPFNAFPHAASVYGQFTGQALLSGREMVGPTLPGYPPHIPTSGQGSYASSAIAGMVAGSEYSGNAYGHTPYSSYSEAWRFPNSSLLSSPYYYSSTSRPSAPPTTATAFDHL

## CN1C(=O)c2cc(NC(=O)c3cccc(C(F)(F)F)c3)ccc2OC[C@H]2O[C@H](CC(=O)NCCN3CCCC3)CC[C@H]21
[1]
  AC50: 38.9 µM (active)

## CN(C)CCNC(=O)c1cc2c(s1)-c1ccc(Cl)cc1SC2
[2]
  IC50: 6.25 µM (active)
[3]
  EC50: 13.5 µM (active)
[4]
  IC50: > 20 µM (inactive)
[5]
  AC50: 8.31 µM (active)
[6]
  AC50: 29.3 µM (active)
[7]
  EC50: 5.06 µM (active)
[8]
  AC50: 9.29 µM (active)
[9]
  EC50: 5.2 µM (inconclusive)
[10]
  EC50: 2.18 µM (active)
[11]
  EC50: 9.06 µM (active)
[12]
  EC50: 5.57 µM (inconclusive)
[13]
  AC50: 11 µM (active)
[14]
  EC50: 4.54 µM (active)
[15]
  AC50: 60.8 µM (active)
[16]
  EC50: > 120 µM (not active)

## C[C@@H]1CN([C@@H](C)CO)C(=O)c2cccc(NC(=O)c3ccncc3)c2O[C@H]1CN(C)Cc1ccccc1
[17]
  IC50: 10 µM (inconclusive)
[18]
  IC50: > 100 µM (inactive)
[19]
  AC50: 0.08 µM (active)
[20]
  IC50: 4.77 µM (inactive)
[21]
  IC50: 5.33 µM (inactive)
[22]
  IC50: 4.77 µM (inactive)
[23]
  IC50: > 100 µM (inactive)
